# Patent EP2578599A1 (LanthioPep B.V., priority 2011, dated 2013)
# Experiments:
# [1] = test system: trypsin; assay: Proteolytic resistance: incubation of peptide conformations with trypsin; format: in vitro ADME
# Procedure: Production of peptide in Lactococcus lactis and characterization of the peptide were performed as described in Plat et al. (Polymers 2011, 3, 1282-1296). […] After inducing dehydration the peptide was harvested from the medium and characterized. After overnight incubation of the purified peptide containing a lysinoalanine at RT in 0.25 % ammonia (w/v) the sample was applied on a C18 column ([…] analytical C18 column 5 μm). Peaks were collected and analyzed by mass spectrometry. Different conformations of the peptide were incubated with trypsin and cpY (Figure 2).
# [2] = molecular target: carboxypeptidase Y (cpY) (Saccharomyces cerevisiae, UniProt P00729); assay: Proteolytic resistance: incubation of peptide conformations with carboxypeptidase Y; format: in vitro ADME; settings: HPLC peaks of nisin leader - GLP-1 fragment (29-36) peptide treated with cpY
# Procedure: Production of peptide in Lactococcus lactis and characterization of the peptide were performed as described in Plat et al. (Polymers 2011, 3, 1282-1296).
# After overnight incubation of the purified peptide containing a lysinoalanine at RT in 0.25 % ammonia (w/v) the sample was applied on a C18 column (Alltech, alltima analytical C18 column 5 µm). Peaks were collected and analyzed by mass spectrometry. Different conformations of the peptide were incubated with trypsin and cpY (Figure 2).
# carboxypeptidase Y (cpY), sequence (P00729 112-532): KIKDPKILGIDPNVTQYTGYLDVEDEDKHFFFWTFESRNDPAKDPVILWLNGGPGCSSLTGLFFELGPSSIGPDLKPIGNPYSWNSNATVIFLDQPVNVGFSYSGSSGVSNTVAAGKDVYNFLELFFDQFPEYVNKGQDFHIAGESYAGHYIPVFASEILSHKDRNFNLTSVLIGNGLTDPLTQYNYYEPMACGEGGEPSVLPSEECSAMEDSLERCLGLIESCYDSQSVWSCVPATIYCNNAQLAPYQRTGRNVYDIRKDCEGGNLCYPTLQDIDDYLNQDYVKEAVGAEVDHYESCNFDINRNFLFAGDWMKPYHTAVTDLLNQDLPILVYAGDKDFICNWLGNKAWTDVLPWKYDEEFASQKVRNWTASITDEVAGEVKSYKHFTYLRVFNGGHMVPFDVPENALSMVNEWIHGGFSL
substance,measurement,setting,value
nisin leader - I Dha W L V K G R [lysinoalanine-bridged GLP-1 peptide],protection against trypsin,[1],resistant
same,protection against carboxypeptidase Y (cpY),[2],resistant
